Assay in all cases: potency against CXCR6 with APJ panel – cell-based, beta-arrestin, DiscoveRx, uHTS hits, dose response (AID 624129)
In assay [1] the target is Beta-galactosidase (Escherichia coli) (UniProt Q8VNN2). Particulars: CXCR6 beta-arrestin (DiscoveRx) antagonist cell assay, b-galactosidase.
The target in assay [2] is C-C chemokine receptor type 6 (Homo sapiens) (UniProt P51684). Conditions: CXCR6 beta-arrestin (DiscoveRx) antagonist cell assay.
The target of assay [3] is C-X-C chemokine receptor type 6 (Homo sapiens) (UniProt O00574). Conditions: CXCR6 beta-arrestin (DiscoveRx) antagonist cell assay.
The target in assay [4] is Apelin receptor (Homo sapiens) (UniProt P35414). Conditions: CXCR6 beta-arrestin (DiscoveRx) antagonist cell assay, APJ.
Where [5] appears, read: dose range 1, mean IC50 across replicates.
[6] abbreviates: CCR6, dose range 1, mean IC50 across replicates.
Where [7] appears, read: CXCR6, dose range 1, mean IC50 across replicates.
Setting [8] is: CXCR6, run 1, dose range 2, at 80 µM (top of the series).

Calls of active or inactive are those of the source. The rule behind the calls is not given here.

C-X-C chemokine receptor type 6 (Homo sapiens), sequence (O00574 whole entry, looked up): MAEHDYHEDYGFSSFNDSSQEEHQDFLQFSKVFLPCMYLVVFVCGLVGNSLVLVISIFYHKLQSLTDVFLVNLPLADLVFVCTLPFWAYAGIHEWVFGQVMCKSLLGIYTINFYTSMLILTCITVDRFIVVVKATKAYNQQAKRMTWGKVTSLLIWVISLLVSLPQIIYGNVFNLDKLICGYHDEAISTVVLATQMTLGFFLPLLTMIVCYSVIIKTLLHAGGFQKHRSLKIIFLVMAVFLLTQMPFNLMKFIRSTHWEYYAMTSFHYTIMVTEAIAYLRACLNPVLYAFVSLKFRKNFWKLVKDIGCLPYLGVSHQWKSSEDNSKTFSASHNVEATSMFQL
Beta-galactosidase (Escherichia coli), sequence (Q8VNN2 whole entry, looked up): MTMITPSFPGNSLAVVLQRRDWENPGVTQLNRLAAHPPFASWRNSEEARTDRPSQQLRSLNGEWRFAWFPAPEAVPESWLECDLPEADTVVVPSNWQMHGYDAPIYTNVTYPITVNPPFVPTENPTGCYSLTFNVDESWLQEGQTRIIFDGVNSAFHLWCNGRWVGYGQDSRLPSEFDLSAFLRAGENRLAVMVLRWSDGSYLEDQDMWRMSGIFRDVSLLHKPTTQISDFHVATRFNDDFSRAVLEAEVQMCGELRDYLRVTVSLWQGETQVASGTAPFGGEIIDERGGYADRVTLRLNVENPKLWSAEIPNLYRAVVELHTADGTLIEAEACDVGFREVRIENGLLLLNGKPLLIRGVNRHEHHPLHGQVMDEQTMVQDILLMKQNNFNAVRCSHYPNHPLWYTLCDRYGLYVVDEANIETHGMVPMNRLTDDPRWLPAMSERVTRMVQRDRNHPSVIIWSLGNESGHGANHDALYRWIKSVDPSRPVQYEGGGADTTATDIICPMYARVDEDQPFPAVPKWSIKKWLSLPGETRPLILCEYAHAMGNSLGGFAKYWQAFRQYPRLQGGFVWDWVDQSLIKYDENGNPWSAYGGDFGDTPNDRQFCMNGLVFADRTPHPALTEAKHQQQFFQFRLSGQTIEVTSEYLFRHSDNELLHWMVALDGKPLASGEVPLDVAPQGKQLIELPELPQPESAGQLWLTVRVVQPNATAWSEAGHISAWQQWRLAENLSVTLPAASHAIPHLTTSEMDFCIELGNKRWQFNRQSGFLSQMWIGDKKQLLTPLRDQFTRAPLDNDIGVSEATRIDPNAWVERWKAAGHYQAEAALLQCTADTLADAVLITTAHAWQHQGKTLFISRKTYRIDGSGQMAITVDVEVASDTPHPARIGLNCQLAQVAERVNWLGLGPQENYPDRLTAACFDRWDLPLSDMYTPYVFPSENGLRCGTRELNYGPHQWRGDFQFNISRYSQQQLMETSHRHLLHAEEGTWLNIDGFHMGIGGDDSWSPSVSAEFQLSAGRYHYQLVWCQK

With `Fc1ccc(NC(=S)Nc2nccs2)cc1`, the IC50 in assay [1] (dose range 1) was > 80 µM (inactive); in assay [1] (setting [5]), > 80 µM; in assay [2] (CCR6, dose range 1), 10.8 µM; in assay [2] (setting [6]), 12.6 µM; in assay [2] (CCR6, run 2, dose range 1) it was 14.3 µM; in assay [3] (setting [7]), 14.1 µM. In addition, the IC50 is 8.52 µM in assay [3] (CXCR6, run 1, dose range 2); 14 µM in assay [3] (CXCR6, run 2, dose range 1); 13.3 µM in assay [3] (CXCR6, run 2, dose range 2); 13.6 µM in assay [4] (dose range 1); 13.7 µM in assay [4] (setting [5]); 14.1 µM in assay [4] (run 2, dose range 1). The IC50 in assay [4] (run 3, dose range 1) was determined as 13.3 µM. In assay [3] (CXCR6, dose range 1), the IC50 result is “inactive”.

Take `CCC(=O)OCCNc1cc(Sc2nc3ccccc3[nH]2)c2nonc2c1[N+](=O)[O-]`: the 50% inhibitory concentration (IC50) in assay [1] (dose range 1) was 27.1 µM; in assay [1] (setting [5]), 27.1 µM; in assay [2] (CCR6, dose range 1) it was 4.73 µM; in assay [2] (setting [6]) it was 4.66 µM; in assay [2] (CCR6, run 2, dose range 1) it was 4.58 µM; in assay [3] (CXCR6, dose range 1), 4.57 µM. For the same compound, the concentration for half-maximal inhibition (IC50) was 5.64 µM in assay [3] (setting [7]); 5.85 µM in assay [3] (CXCR6, run 1, dose range 2); 6.71 µM in assay [3] (CXCR6, run 2, dose range 1); 5.42 µM in assay [3] (CXCR6, run 2, dose range 2); 9.49 µM in assay [4] (dose range 1); 7.79 µM in assay [4] (setting [5]). Besides, the concentration for half-maximal inhibition (IC50) in assay [4] (run 2, dose range 1) worked out at 6.65 µM; in assay [4] (run 3, dose range 1), 7.23 µM.

Consider `Cn1nc([N+](=O)[O-])nc1Sc1cccc2cccnc12`, for which the IC50 in assay [1] (dose range 1) is > 80 µM (inactive); in assay [1] (setting [5]), > 80 µM; in assay [2] (CCR6, dose range 1), 12.1 µM; in assay [2] (setting [6]), 13.7 µM; in assay [2] (CCR6, run 2, dose range 1) it was 15.2 µM; in assay [3] (setting [7]), 12.5 µM. In addition, the IC50 in assay [3] (CXCR6, run 1, dose range 2) is 11.3 µM; in assay [3] (CXCR6, run 2, dose range 1) it was 14.2 µM; in assay [3] (CXCR6, run 2, dose range 2) it was 9.55 µM; in assay [4] (dose range 1) it was 11 µM; in assay [4] (setting [5]), 11.9 µM; in assay [4] (run 2, dose range 1) it was 11.4 µM. In assay [4] (run 3, dose range 1), this compound displayed a half-maximal inhibitory concentration (IC50) of 13.1 µM. Further, the IC50 result in assay [3] (CXCR6, dose range 1) was “inactive”.

Consider `N#CC(C#N)=C1C=CC=CN1/C(=C\c1ccco1)C(=O)c1ccc(Br)cc1`, for which the IC50 in assay [1] (dose range 1) was > 80 µM (inactive); in assay [1] (setting [5]) it was > 80 µM; in assay [2] (setting [6]), > 80 µM; in assay [2] (CCR6, run 2, dose range 1) it was > 80 µM; in assay [3] (CXCR6, dose range 1), > 80 µM (inactive); in assay [3] (setting [7]), > 80 µM. The IC50 in assay [3] (CXCR6, run 2, dose range 1) is > 80 µM; in assay [4] (setting [5]), > 80 µM; in assay [4] (run 2, dose range 1), > 80 µM; in assay [4] (run 3, dose range 1), > 80 µM. In addition, the inhibition in assay [3] (setting [8]) was found to be 19.9%.

Turning to `CC(C)(C)C(=O)NC(=S)NNC(=O)c1sc2ccccc2c1Cl`, the IC50 was > 80 µM (inactive) in assay [1] (dose range 1); > 80 µM in assay [1] (setting [5]); 34 µM in assay [2] (setting [6]); 34 µM in assay [2] (CCR6, run 2, dose range 1); > 80 µM (inactive) in assay [3] (CXCR6, dose range 1); > 80 µM in assay [3] (setting [7]). The IC50 was > 80 µM in assay [3] (CXCR6, run 2, dose range 1); 24.4 µM in assay [4] (dose range 1); 18.1 µM in assay [4] (setting [5]); 15.2 µM in assay [4] (run 2, dose range 1); 14.7 µM in assay [4] (run 3, dose range 1). Moreover, the inhibition in assay [3] (setting [8]) amounted to 63.6%.

For `Cc1ccc2oc(/N=C(\N)NC(=O)C(C)(C)C)nc2c1`, the IC50 in assay [1] (dose range 1) was > 80 µM (inactive); in assay [1] (setting [5]), > 80 µM; in assay [2] (CCR6, dose range 1) it was 11.2 µM; in assay [2] (setting [6]), 12.3 µM; in assay [2] (CCR6, run 2, dose range 1), 13.4 µM; in assay [3] (setting [7]), 16.7 µM. Moreover, the half-maximal inhibitory concentration (IC50) in assay [3] (CXCR6, run 2, dose range 1) was 16 µM; in assay [4] (dose range 1) it was 19.8 µM; in assay [4] (setting [5]), 20.9 µM; in assay [4] (run 2, dose range 1) it was 19 µM; in assay [4] (run 3, dose range 1), 23.9 µM. Also, in assay [3] (CXCR6, dose range 1), the IC50 result is “inactive”. In addition, the inhibition in assay [3] (setting [8]) came out at 106%.

In the case of `C=C(CN(C)C)C(=O)c1ccc(OC2OC(COC(C)=O)C(OC(C)=O)C(OC(C)=O)C2OC(C)=O)cc1` (stereo not given), the IC50 in assay [1] (dose range 1) is > 80 µM (inactive); in assay [1] (setting [5]), > 80 µM; in assay [2] (CCR6, dose range 1) it was 24.5 µM; in assay [2] (setting [6]), 23.2 µM; in assay [2] (CCR6, run 2, dose range 1), 21.9 µM; in assay [3] (setting [7]), 22.3 µM. Further, the IC50 in assay [3] (CXCR6, run 2, dose range 1) is 20.9 µM; in assay [4] (dose range 1), 38.4 µM; in assay [4] (setting [5]) it was 38.9 µM; in assay [4] (run 2, dose range 1), 37.8 µM; in assay [4] (run 3, dose range 1), 40.5 µM. In addition, the IC50 result in assay [3] (CXCR6, dose range 1) was “inactive”. For the same compound, the inhibition in assay [3] (setting [8]) worked out at 135%.

As to `Cc1ccc(CN2C(=O)C(Cc3ccccc3)Nc3ncnc(N4CCN(c5ccccc5)CC4)c32)cc1` (stereo not given), the half-maximal inhibitory concentration (IC50) in assay [1] (dose range 1) was 3.65 µM; in assay [1] (setting [5]) it was 3.65 µM; in assay [2] (CCR6, dose range 1) it was 2.72 µM; in assay [2] (setting [6]), 2.47 µM; in assay [2] (CCR6, run 2, dose range 1), 2.23 µM; in assay [3] (CXCR6, dose range 1), 3.59 µM. Besides, the concentration for half-maximal inhibition (IC50) is 2.93 µM in assay [3] (setting [7]); 2.45 µM in assay [3] (CXCR6, run 1, dose range 2); 2.76 µM in assay [3] (CXCR6, run 2, dose range 1); 2.93 µM in assay [3] (CXCR6, run 2, dose range 2); 3.71 µM in assay [4] (dose range 1); 4.54 µM in assay [4] (setting [5]). Also, the IC50 in assay [4] (run 2, dose range 1) stood at 5.03 µM; in assay [4] (run 3, dose range 1), 4.88 µM.

On to `C=C1CC(COc2cc(=O)oc3ccccc23)(c2ccccc2)OC1=O` (stereo not given), for which the IC50 in assay [1] (dose range 1) is > 80 µM (inactive); in assay [1] (setting [5]) it was > 80 µM; in assay [2] (CCR6, dose range 1), 6.18 µM; in assay [2] (setting [6]) it was 6.81 µM; in assay [2] (CCR6, run 2, dose range 1), 7.45 µM; in assay [3] (CXCR6, dose range 1), 7.8 µM. The IC50 in assay [3] (setting [7]) is 6.87 µM; in assay [3] (CXCR6, run 1, dose range 2), 6.11 µM; in assay [3] (CXCR6, run 2, dose range 1), 7.9 µM; in assay [3] (CXCR6, run 2, dose range 2), 5.67 µM; in assay [4] (dose range 1) it was 11 µM; in assay [4] (setting [5]), 9.89 µM. For the same compound, the half-inhibitory concentration (IC50) turned out to be 7.31 µM in assay [4] (run 2, dose range 1) and 11.3 µM in assay [4] (run 3, dose range 1).

Take `Cc1cc(C)c2c(=O)n(CC(=O)Nc3cccc(Cl)c3C)sc2n1`: the IC50 was > 80 µM (inactive) in assay [1] (dose range 1); > 80 µM in assay [1] (setting [5]); 1.85 µM in assay [2] (CCR6, dose range 1); 2.69 µM in assay [2] (setting [6]); 3.52 µM in assay [2] (CCR6, run 2, dose range 1); 2.68 µM in assay [3] (CXCR6, dose range 1). The IC50 is 2.42 µM in assay [3] (setting [7]); 2.16 µM in assay [3] (CXCR6, run 2, dose range 1); 1.69 µM in assay [4] (dose range 1); 3.11 µM in assay [4] (setting [5]); 5.55 µM in assay [4] (run 2, dose range 1); 2.1 µM in assay [4] (run 3, dose range 1). For the same compound, the inhibition in assay [3] (CXCR6, run 1, dose range 2, at 40 µM (top of the series)) was found to be 96.5%.

On to `O=C(CSc1cccc2cccnc12)N/N=C/c1cccnc1`, for which the IC50 in assay [1] (dose range 1) was > 80 µM (inactive); in assay [1] (setting [5]), > 80 µM; in assay [2] (CCR6, dose range 1), 4.18 µM; in assay [2] (setting [6]) it was 5.05 µM; in assay [2] (CCR6, run 2, dose range 1), 5.92 µM; in assay [3] (CXCR6, dose range 1), 6.91 µM. For the same compound, the 50% inhibitory concentration (IC50) in assay [3] (setting [7]) is 4.34 µM; in assay [3] (CXCR6, run 1, dose range 2) it was 3.34 µM; in assay [3] (CXCR6, run 2, dose range 1), 4.25 µM; in assay [3] (CXCR6, run 2, dose range 2) it was 2.87 µM; in assay [4] (dose range 1), 3.95 µM; in assay [4] (setting [5]), 4.26 µM. The half-inhibitory concentration (IC50) in assay [4] (run 2, dose range 1) was 4.72 µM; in assay [4] (run 3, dose range 1), 4.11 µM.

With `O=C(Nc1ccccc1Cl)/C(Cl)=C(\Cl)S(=O)c1ccccc1` (stereo not given), the IC50 was > 80 µM (inactive) in assay [1] (dose range 1); > 80 µM in assay [1] (setting [5]); 8.58 µM in assay [2] (CCR6, dose range 1); 8.32 µM in assay [2] (setting [6]); 8.05 µM in assay [2] (CCR6, run 2, dose range 1); 9.69 µM in assay [3] (CXCR6, dose range 1). In addition, the concentration for half-maximal inhibition (IC50) in assay [3] (setting [7]) is 9.93 µM; in assay [3] (CXCR6, run 1, dose range 2), 9.44 µM; in assay [3] (CXCR6, run 2, dose range 1), 10.4 µM; in assay [3] (CXCR6, run 2, dose range 2), 10.2 µM; in assay [4] (dose range 1), 12.7 µM; in assay [4] (setting [5]), 11.7 µM. Also, the half-inhibitory concentration (IC50) in assay [4] (run 2, dose range 1) is 11.9 µM; in assay [4] (run 3, dose range 1), 10.5 µM.

As a reminder, the IC50 is the concentration that gives 50% inhibition. For orientation: inhibition means the relative decrease from the control value, in per cent.
